# Target: T1, casein kinase 1ε (Homo sapiens, UniProt P49674)
# T1 construct: made in house
# Assay: Casein Kinase Epsilon 33P-ATP Filter Plate Assay for Screening CK1ε Inhibitors
# Type: biochemical
# Experimental: Casein Kinase Epsilon ^33P-ATP Filter Plate Assay for Screening CK1ε Inhibitors
# Purpose: This assay measures the ability of compounds to inhibit the phosphorylation of the substrate casein by the enzyme casein kinase 1ε using an in vitro ^33P-ATP filtration assay.
# The above are stored as 100 μL aliquots at minus 80° C. • Compounds: • Supply compounds for testing as frozen 10 mM compound stock dissolved in 100% DMSO. Assay Conditions: • Final total assay volume per well is equal to 50 μL that one prepares as follows: • 5 μL of diluted compound stock (10, 1, 0.1, 0.01 or 0.001 μM), • 5 μL of dephosphorylated casein final concentration 0.2 μg/μL, • 20 μL of CK1ε final concentration 3 ng/μL, and • 20 μL of γ-^33P-ATP final concentration 0.02 μCi/μL mixed with cold ATP (10 μM final). Methodology: • 1. Prepare 500 mL of fresh assay buffer: 50 mM Tris pH 7.5, 10 nm MgCl2, 2 mM DTT and 1 mM EGTA • 2. Obtain compounds to be evaluated as 10 μL of 10 mM stock dissolved in 100% DMSO. Use a Biomek 2000 liquid handling robot, make serial dilutions to yield 10, 1, 0.1, 0.01 and 0.001 μM final compound dilutions added as 5 μL additions to Falcon U bottom plates. […] A routine screening assay will consist of 32 compounds, which equals 4 assay plates. • 3.
# • 4. Add 5 μL of compound as indicated, then add 5 μL of dephosphorylated casein (dissolved in distilled H20) (0.2 μg/μL) and 20 μL CK1ε (3 ng/μL) to the appropriate wells. • 5. Finally add 20 μL γ-^33P-ATP (0.02 μCi/μL)/10 μM cold ATP (equals approximately 2×10^6 CPM per well). • 6. Vortes the Falcon U-Bottom assay plate containing the above 50 μL reaction volume and then incubate at room temperature for 2 hours. • 7. At the end of 2 hours, stop the reaction by the addition of 65 μL of ice cold 2 mM cold ATP (made up in assay buffer) to the assay plates using a Beckman Multimek. • 8. At the same time add 25 μL 100% ice cold TCA made up in distilled H20 to a matching number of Millipore MAPH filter plates. • 9. Using a handheld 8-channel pipettor, transfer 100 μL of the reaction mixture from the Falcon U-Bottom Plate to the Millipore MAPH filter plates presoaked with TCA. • 10. Mix the Millipore MAPH filter plates gently and allow to sit at room temperature for at least 30 minutes to precipitate the proteins. • 11. After 30 minutes, place the filter plates on a Millipore vacuum manifold and filter at no more than 8 mm Hg as the MAPH filters tend to “air lock” at higher vacuum settings. • 12. […] Allow the plates to dry overnight at room temperature. The next day add 40 μL Packard Microscint-20 Scintillation Fluid per well using a Titertek Multidrop dispenser; seal the plates and count for 2 minutes/well in a Packard Topcount NXT Scintillation Counter (to provide CPM values/well). Calculation: • 1. Import Counts Per Minute (CPM) data into a proprietary data calculation and archiving database (Activity Base by IDBS version 5.0). • 2. Column 1 for each plate reflects total phosphorylation activity of the enzyme in the absence of any inhibiting compound and thus represents 100%. Column 12 reflects any nonspecific phosphorylation/retained radioactivity activity in the absence of inhibiting compound and enzyme. Typically one observes approximately 1% of Total CPMs that are “nonspecific”. • 3.
# T1 sequence (P49674 whole entry): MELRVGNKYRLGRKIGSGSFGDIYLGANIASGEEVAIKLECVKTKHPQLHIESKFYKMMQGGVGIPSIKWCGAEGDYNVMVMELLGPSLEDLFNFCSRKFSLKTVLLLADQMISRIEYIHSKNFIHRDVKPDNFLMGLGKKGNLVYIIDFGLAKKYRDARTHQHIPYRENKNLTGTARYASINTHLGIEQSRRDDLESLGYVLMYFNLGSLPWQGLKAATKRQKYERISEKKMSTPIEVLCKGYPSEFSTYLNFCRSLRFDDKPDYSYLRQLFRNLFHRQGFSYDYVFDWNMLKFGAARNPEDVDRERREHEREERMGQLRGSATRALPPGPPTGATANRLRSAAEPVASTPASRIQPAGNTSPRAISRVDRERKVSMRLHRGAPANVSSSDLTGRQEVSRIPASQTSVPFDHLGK
row,Ki,SMILES
1,0.097 µM,"NCc1ccc2c(Sc3ccccc3)c(C(N)=O)[nH]c2c1 [IIa, 6-Aminomethyl-3-phenylsulfanyl-1H-indole-2-carboxylic acid amide]"
2,0.46 µM,"Cc1cccc(CNCc2ccc3c(Sc4ccccc4)c(C(N)=O)[nH]c3c2)c1 [IIaa, 6-[(3-Methylbenzylamino)methyl]-3-phenylsulfanyl-1H-indole-2-carboxylic acid amide]"
3,4.04 µM,"NC(=O)c1[nH]c2cc(CNCc3cccc(C(F)(F)F)c3F)ccc2c1Sc1ccccc1 [IIab, 6-[(2-Fluoro-3-trifluoromethylbenzylamino)methyl]-3-phenylsulfanyl-1H-indole-2-carboxylic acid amide]"
4,0.24 µM,"COc1ccccc1CNCc1ccc2c(Sc3ccccc3)c(C(N)=O)[nH]c2c1 [IIac, 6-[(2-Methoxybenzylamino)methyl]-3-phenylsulfanyl-1H-indole-2-carboxylic acid amide]"
5,0.11 µM,"NCCCC[C@H](N)C(=O)NCc1ccc2c(Sc3ccccc3)c(C(N)=O)[nH]c2c1 [IIad, 6-[(2,6-Diaminohexanoylamino)methyl]-3-phenylsulfanyl-1H-indole-2-carboxylic acid amide]"
6,0.78 µM,"NC(=O)c1[nH]c2cc(CNC(=O)C(N)CC(=O)O)ccc2c1Sc1ccccc1 (stereo not shown) [IIae, 3-Amino-N-(2-carbamoyl-3-phenylsulfanyl-1H-indol-6-ylmethyl)succinamic acid]"
7,4.83 µM,"NC(=O)c1[nH]c2cc(CNCc3c4ccccc4c(Cl)c4ccccc34)ccc2c1Sc1ccccc1 [IIaf, 6-{[(10-Chloro-anthracen-9-ylmethyl)amino]methyl}-3-phenylsulfanyl-1H-indole-2-carboxylic acid amide]"
8,6.92 µM,NC(=O)c1[nH]c2cc(CN(C/C=C/c3ccco3)C/C=C/c3ccco3)ccc2c1Sc1ccccc1 [IIag]
9,3.5 µM,"NC(=O)c1[nH]c2cc(CNCc3cc(Cl)cc(Cl)c3O)ccc2c1Sc1ccccc1 [IIah, 6-[(3,5-Dichloro-2-hydroxybenzylamino)methyl]-3-phenylsulfanyl-1H-indole-2-carboxylic acid amide]"
10,0.6 µM,"COc1cc(CNCc2ccc3c(Sc4ccccc4)c(C(N)=O)[nH]c3c2)cc(Br)c1OC [IIai, 6-[(3-Bromo-4,5-dimethoxybenzylamino)methyl]-3-phenylsulfanyl-1H-indole-2-carboxylic acid amide]"
11,2.1 µM,"COc1cc(CNCc2ccc3c(Sc4ccccc4)c(C(N)=O)[nH]c3c2)ccc1OCc1ccccc1 [IIaj, 6-[(4-Benzyloxy-3-methoxybenzylamino)methyl]-3-phenylsulfanyl-1H-indole-2-carboxylic acid amide]"
12,0.64 µM,"COc1ccc(CNCc2ccc3c(Sc4ccccc4)c(C(N)=O)[nH]c3c2)cc1OCc1ccccc1 [IIak, 6-[(3-Benzyloxy-4-methoxybenzylamino)methyl]-3-phenylsulfanyl-1H-indole-2-carboxylic acid amide]"
13,1.21 µM,"NC(=O)c1[nH]c2cc(CNCc3ccc([N+](=O)[O-])s3)ccc2c1Sc1ccccc1 [IIal, 6-{[(5-Nitrothiophen-2-ylmethyl)amino]methyl}-3-phenylsulfanyl-1H-indole-2-carboxylic acid amide]"
14,2.42 µM,"COC(=O)c1ccc(CNCc2ccc3c(Sc4ccccc4)c(C(N)=O)[nH]c3c2)cc1 [IIam, 4-{[(2-Carbamoyl-3-phenylsulfanyl-1H-indol-6-ylmethyl)amino]methyl}benzoic acid methyl ester]"
15,> 10 µM,NC(=O)c1[nH]c2cc(CNCC=C(c3ccccc3)c3ccccc3)ccc2c1Sc1ccccc1 [IIan]
16,> 10 µM,"NC(=O)c1[nH]c2cc(CNCc3ccc(C=Cc4ccccc4)cc3)ccc2c1Sc1ccccc1 [IIao, 3-Phenylsulfanyl-6-[(4-styrylbenzylamino)methyl]-1H-indole-2-carboxylic acid amide]"
17,> 10 µM,"NC(=O)c1[nH]c2cc(CNCc3c(F)cccc3C(F)(F)F)ccc2c1Sc1ccccc1 [IIap, 6-[(2-Fluoro-6-trifluoromethylbenzylamino)methyl]-3-phenylsulfanyl-1H-indole-2-carboxylic acid amide]"
18,2.54 µM,"NC(=O)c1[nH]c2cc(CNCc3ccc(-c4ccccc4Cl)o3)ccc2c1Sc1ccccc1 [IIar, 6-({[5-(2-Chlorophenyl)-furan-2-ylmethyl]amino}methyl)-3-phenylsulfanyl-1H-indole-2-carboxylic acid amide]"
19,6.25 µM,"NC(=O)c1[nH]c2cc(CNCc3cccn3S(=O)(=O)c3ccccc3)ccc2c1Sc1ccccc1 [IIas, 6-{[(1-Benzenesulfonyl-1H-pyrrol-2-ylmethyl)amino]methyl}-3-phenylsulfanyl-1H-indole-2-carboxylic acid amide]"
20,0.7 µM,"NC(=O)c1[nH]c2cc(CNCc3ccc([N+](=O)[O-])o3)ccc2c1Sc1ccccc1 [IIau, 6-{[(5-Nitrofuran-2-ylmethyl)amino]methyl}-3-phenylsulfanyl-1H-indole-2-carboxylic acid amide]"
21,0.72 µM,"NC(=O)c1[nH]c2cc(CNCc3ccccc3)ccc2c1Sc1ccccc1 [IIc, 6-(Benzylaminonmethyl)-3-phenylsulfanyl-1H-indole-2-carboxylic acid amide]"

row,Ki,SMILES
1,0.47 µM,"NC(=O)c1[nH]c2cc(CNCc3ccc([N+](=O)[O-])cc3)ccc2c1Sc1ccccc1 [IId, 6-[(4-Nitrobenzylamino)methyl]-3-phenylsulfanyl-1H-indole-2-carboxylic acid amide]"
2,0.73 µM,"CN(C)c1ccc(CNCc2ccc3c(Sc4ccccc4)c(C(N)=O)[nH]c3c2)cc1 [IIe, 6-[(4-Dimethylaminobenzylamino)methyl]-3-phenylsulfanyl-1H-indole-2-carboxylic acid amide]"
3,0.81 µM,"Cc1ccc(CNCc2ccc3c(Sc4ccccc4)c(C(N)=O)[nH]c3c2)cc1 [IIf, 6-[(4-Methylbenzylamino)methyl]-3-phenylsulfanyl-1H-indole-2-carboxylic acid amide]"
4,0.52 µM,"COc1ccc(CNCc2ccc3c(Sc4ccccc4)c(C(N)=O)[nH]c3c2)cc1 [IIg, 6-[(4-Methoxybenzylamino)methyl]-3-phenylsulfanyl-1H-indole-2-carboxylic acid amide]"
5,0.74 µM,"NC(=O)c1[nH]c2cc(CNCc3ccc(Br)cc3)ccc2c1Sc1ccccc1 [IIh, 6-[(4-Bromobenzylamino)methyl]-3-phenylsulfanyl-1H-indole-2-carboxylic acid amide]"
6,0.39 µM,"NC(=O)c1[nH]c2cc(CNCc3ccc(Cl)cc3)ccc2c1Sc1ccccc1 [IIi, 6-[(4-Chlorobenzylamino)methyl]-3-phenylsulfanyl-1H-indole-2-carboxylic acid amide]"
7,1.39 µM,"NC(=O)c1[nH]c2cc(CNCc3ccc(-c4ccccc4)cc3)ccc2c1Sc1ccccc1 [IIj, 6-{[(Biphenyl-4-ylmethyl)amino]methyl}-3-phenylsulfanyl-1H-indole-2-carboxylic acid amide]"
8,1.19 µM,"NC(=O)c1[nH]c2cc(CNCc3cccc([N+](=O)[O-])c3)ccc2c1Sc1ccccc1 [IIk, 6-[(3-Nitrobenzylamino)methyl]-3-phenylsulfanyl-1H-indole-2-carboxylic acid amide]"
9,1.77 µM,"NC(=O)c1[nH]c2cc(CNCc3ccccc3[N+](=O)[O-])ccc2c1Sc1ccccc1 [IIl, 6-[(2-Nitrobenzylamino)methyl]-3-phenylsulfanyl-1H-indole-2-carboxylic acid amide]"
10,4.88 µM,"NC(=O)c1[nH]c2cc(CNCc3ccc(C(F)(F)F)cc3)ccc2c1Sc1ccccc1 [IIm, 3-Phenalsulfanyl-6-[(4-trifluoromethylbenzylamino)methyl]-1H-indole-2-carboxylic acid amide]"
11,4.99 µM,"NC(=O)c1[nH]c2cc(CNCc3cc(F)cc(C(F)(F)F)c3)ccc2c1Sc1ccccc1 [IIn, 6-[(3-Fluoro-5-trifluoromethylbenzylamino)methyl]-3-phenylsulfanyl-1H-indole-2-carboxylic acid amide]"
12,0.17 µM,"CC(N)C(=O)NCc1ccc2c(Sc3ccccc3)c(C(N)=O)[nH]c2c1 (stereo not shown) [IIo, 6-[(2-Aminopropionylamino)methyl]-3-phenylsulfanyl-1H-indole-2-carboxylic acid amide]"
13,0.12 µM,"NCC(=O)NCc1ccc2c(Sc3ccccc3)c(C(N)=O)[nH]c2c1 [IIp, 6-[(2-Aminoacetylamino)methyl]-3-phenylsulfanyl-1H-indole-2-carboxylic acid amide]"
14,0.15 µM,"CCC(C)C(N)C(=O)NCc1ccc2c(Sc3ccccc3)c(C(N)=O)[nH]c2c1 (stereo not shown) [IIq, 6-[(2-Amino-3-methylpentanoylamino)methyl]-3-phenylsulfanyl-1H-indole-2-carboxylic acid amide]"
15,0.27 µM,"NC(=O)CC[C@H](N)C(=O)NCc1ccc2c(Sc3ccccc3)c(C(N)=O)[nH]c2c1 [IIr, 2-Aminopentanedioic acid 5-amide 1-[(2-carbamoyl-3-phenylsulfanyl-1H-indol-6-ylmethyl)-amide]]"
16,0.1 µM,NC(=O)c1[nH]c2cc(CNC(=O)[C@@H](N)Cc3c[nH]c4ccccc34)ccc2c1Sc1ccccc1 [IIs]
17,1.28 µM,"NC(=O)c1[nH]c2cc(CNC(=O)[C@@H](N)Cc3ccccc3)ccc2c1Sc1ccccc1 [IIt, 6-[(2-Amino-3-phenylpropionylamino)methyl]-3-phenylsulfanyl-1H-indole-2-carboxylic acid amide]"
18,1.01 µM,COc1ccc2ccccc2c1CNCc1ccc2c(Sc3ccccc3)c(C(N)=O)[nH]c2c1 [IIv]
19,0.29 µM,"COc1ccc(CNCc2ccc3c(Sc4ccccc4)c(C(N)=O)[nH]c3c2)c(OC)c1 [IIw, 6-[(2,4-Dimethoxybenzylamino)methyl]-3-phenylsulfanyl-1H-indole-2-carboxylic acid amide]"
20,1.19 µM,"NC(=O)c1[nH]c2cc(CNCc3cccc(Oc4ccccc4)c3)ccc2c1Sc1ccccc1 [IIx, 6-[(3-Phenoxybenzylamino)methyl]-3-phenylsulfanyl-1H-indole-2-carboxylic acid amide]"
21,0.38 µM,"COc1cccc(CNCc2ccc3c(Sc4ccccc4)c(C(N)=O)[nH]c3c2)c1 [IIy, 6-[(3-Methoxybenzylamino)methyl]-3-phenylsulfanyl-1H-indole-2-carboxylic acid amide]"

row,SMILES,Ki
1,"NC(=O)c1[nH]c2cc(CN(Cc3ccc([N+](=O)[O-])o3)Cc3ccc([N+](=O)[O-])o3)ccc2c1Sc1ccccc1 [IIat, 6-{[Bis-(5-nitrofuran-2-ylmethyl)amino]methyl}-3-phenylsulfanyl-1H-indole-2-carboxylic acid amide]",> 10 µM

# Reference: patent US7629376B2, “3-substituted-5- and 6-aminoalkyl indole-2-carboxylic acid amides and related analogs as inhibitors of casein kinase I” (Aventis Pharmaceuticals Inc., priority 2004, dated 2009)
